This is an account of results in patent US10759816B2, “Heterocyclic compounds as RSV inhibitors” (Enanta Pharmaceuticals, Inc., priority 2016, dated 2020).

This assay concerns genotype A, "Long" strain RSV. Kind of assay: RSV-A in vitro cytoprotection assay in HEp-2 cells (ATPlite readout of cell viability). In kind it is cell-based, Human respiratory syncytial virus. The following applies: human respiratory syncytial virus, HEp-2, HEp-2 cells, genotype A “Long” strain RSV, cytoprotection; read-out: Human RSV-A (“Long” strain) EC50. In a few lines:
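HEp-2 cells (8,000/well) given 2-fold compound dilutions in duplicate, then infected with RSV-A Long strain stock; viability read by ATPlite luminescence after 4 days. EC50 derived from cytoprotection; cytotoxicity measured on parallel uninfected plate.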

Structures are written as SMILES.

In general, EC50 refers to the concentration at which the effect is half-maximal. On to `O=C(NC1CC1)c1cc2c(s1)-c1ccccc1N(C(=O)c1ccc3ccc(N4CCOCC4)cc3n1)CC2` [Example 298], for which the EC50 is over 800 nM.
As for `Cc1cccc(F)c1NC(=O)c1cc2c(s1)-c1ccccc1N(C(=O)c1cccc(-c3cn(C)c4ccccc34)n1)CC2` [Example 208], the EC50 was over 800 nM.
Take `Cc1cccc(F)c1NC(=O)c1cc2c(s1)-c1ccccc1N(C(=O)c1cccc(N(C)Cc3ccc4ccccc4c3)n1)CC2` [Example 354]: the EC50 was over 800 nM.
With `Cc1cccc(F)c1NS(=O)(=O)c1cc2c(s1)-c1ccccc1N(C(=O)c1cccc(N3CCCOCC3)n1)CC2` [Example 317] the figure was over 800 nM; with `Cc1cccc(F)c1NC(=O)c1cc2c(s1)-c1ccccc1N(C(=O)c1cccc(N(C)C3CCS(=O)(=O)C3)n1)CC2` (centres unmarked) [Example 439], over 800 nM.
Take `Cc1cccc(F)c1NC(=O)c1cc2c(s1)-c1ccccc1N(C(=O)c1cccc(-c3cn(C(=O)C(C)C)nc3C3CC3)n1)CC2` [Example 225]: the EC50 was under 400 nM.
With `Cc1cccc(F)c1NC(=O)c1cc2c(s1)-c1ccccc1N(C(=O)c1cccc(N3CCCN(S(=O)(=O)c4ccccc4)CC3)n1)CC2` [Example 386], the half-maximal effective concentration (EC50) is under 400 nM.
The figure for `CN(C)c1cc(-c2cccc(C(=O)N3CCc4cc(C(=O)NC5CC5)sc4-c4ccccc43)n2)ccn1` [Example 84] is 400 to 800 nM.
On to `COc1ccc(-n2cncc2-c2cccc(C(=O)N3CCc4cc(C(=O)Nc5c(C)cccc5F)sc4-c4ccccc43)n2)cc1` [Example 204], for which the EC50 was over 800 nM.
In the case of `O=C(NC1CC1)c1cc2c(s1)-c1ccccc1N(C(=O)c1ccc3ccc(N4CCOCC4)nc3c1)CC2` [Example 297], the concentration for a half-maximal effect (EC50) was over 800 nM.
Take `COC[C@H]1CCCN1c1cccc(C(=O)N2CCc3cc(C(=O)Nc4c(C)cccc4F)sc3-c3ccc(C4CC4)cc32)n1` [Example 500]: the EC50 is over 800 nM.
With `Cc1cccc(F)c1NC(=O)c1cc2c(s1)-c1ccccc1N(C(=O)c1cccc(-c3ccc4c(c3)COC4)n1)CC2` [Example 192] the figure was 400 to 800 nM; with `Cc1cccc(F)c1NC(=O)c1cc2c(s1)-c1ccccc1N(C(=O)c1cccc(N3C[C@@H](NS(C)(=O)=O)C[C@@H]3C)n1)CC2` [Example 392], 400 to 800 nM.
For the molecule `COc1ccc(-c2cccc(C(=O)N3CCc4sc(C(=O)NC5CC5)nc4-c4ccccc43)n2)cn1` [Example 109], the EC50 is over 800 nM.
Take `Cc1cccc(F)c1NC(=O)c1cc2c(s1)-c1ccccc1N(C(=O)c1cccc(N3CCCS(=O)(=O)c4ccccc43)n1)CC2` [Example 406]: the half-maximal effective concentration (EC50) is 400 to 800 nM.
Turning to `Cc1cccc(F)c1NC(=O)c1cc2c(s1)-c1ccccc1N(C(=O)c1cccc(N3CC4CCC(C4)C3)n1)CC2` [Example 443], the concentration for a half-maximal effect (EC50) was over 800 nM.
The figure for `O=C(NC1CCC1)c1cc2c(s1)-c1ccccc1N(C(=O)c1cccc(-c3c[nH]nc3C3CC3)n1)CC2` [Example 178] is under 400 nM; for `Cc1cccc(F)c1NC(=O)c1cc2c(s1)-c1ccccc1N(C(=O)c1cccc(NCc3cccc4ccccc34)n1)CC2` [Example 345] it is over 800 nM.
Consider `Cc1cccc(F)c1NC(=O)c1cc2c(s1)-c1ccccc1N(C(=O)c1cccc(N3CCC4C(C3)C4(F)F)n1)CC2` (centres unmarked) [Example 374], for which the EC50 lay in the range of 400 to 800 nM.
The figure for `Cc1ccc2c(-c3cccc(C(=O)N4CCc5cc(C(=O)Nc6c(C)cccc6F)sc5-c5ccccc54)n3)c[nH]c2c1` [Example 247] is under 400 nM; for `COc1ccc(Oc2cccc(C(=O)N3CCc4cc(C(=O)Nc5c(C)cccc5F)sc4-c4ccccc43)n2)nc1` [Example 408] it is over 800 nM.
In the case of `Cc1cccc(F)c1NC(=O)c1cc2c(s1)-c1ccccc1N(C(=O)c1cccc(N(C)Cc3cccnc3)n1)CC2` [Example 338], the 50% effective concentration (EC50) was under 400 nM.
As to `Cc1cccc(F)c1NC(=O)c1cc2c(s1)-c1ccccc1N(C(=O)c1cccc(-n3cc(C#N)cn3)n1)CC2` [Example 143], the EC50 was over 800 nM.
The figure for `COc1ccccc1CN(C)c1cccc(C(=O)N2CCc3cc(C(=O)NC4CC4)sc3-c3ccccc32)n1` [Example 289] is over 800 nM; for `COCCN(c1cccc(C(=O)N2CCc3cc(C(=O)Nc4c(C)cccc4F)sc3-c3ccccc32)n1)S(C)(=O)=O` [Example 423] it is over 800 nM.
On to `COCCNC(=O)c1cc2c(s1)-c1ccccc1N(C(=O)c1cccc(-c3ccc(OC)nc3)n1)CC2` [Example 97], for which the half-maximal effective concentration (EC50) lay within 400 to 800 nM.
As to `Cc1cccc(F)c1NC(=O)c1cc2c(s1)-c1ccccc1N(C(=O)c1cccc(-c3cn(S(=O)(=O)C4CC4)nc3C3CC3)n1)CC2` [Example 221], the EC50 was under 400 nM.
As for `COc1ccc2c(c1)S(=O)(=O)CCN(c1cccc(C(=O)N3CCc4cc(C(=O)Nc5c(C)cccc5F)sc4-c4ccccc43)n1)C2` [Example 437], the concentration for a half-maximal effect (EC50) is under 400 nM.
Take `O=C(NC1CC1)c1cc2c(s1)-c1ccccc1N(C(=O)c1cccc(-n3ccc4ccccc43)n1)CC2` [Example 112]: the EC50 was over 800 nM.
For the molecule `COc1ccc(-c2cccc(C(=O)N3CCc4cc(C(=O)NC5CC5)sc4-c4ccccc43)n2)cc1` [Example 62], the 50% effective concentration (EC50) was in the range of 400 to 800 nM.
The figure for `Cc1cccc(F)c1NC(=O)c1cc2c(s1)-c1ccccc1N(C(=O)c1cccc(N3CCCN(S(=O)(=O)C4CCCCC4)CC3)n1)CC2` [Example 385] is under 400 nM; for `Cc1cccc(F)c1NC(=O)c1cc2c(s1)-c1ccccc1N(C(=O)c1cccc(N3CCS(=O)(=O)C(C)(C)C3)n1)CC2` [Example 431] it is under 400 nM; for `Cc1cccc(F)c1NC(=O)c1cc2c(s1)-c1ccccc1N(C(=O)c1cccc(-c3c[nH]nc3/C=C/c3ccccc3)n1)CC2` [Example 265] it is over 800 nM.
The figure for `O=C(NC1CC1)c1cc2c(s1)-c1ccccc1N(C(=O)c1cccc(N3CCCOCC3)n1)CC2` [Example 17] is under 400 nM.
With `O=C(NC1CC1)c1cc2c(s1)-c1ccccc1N(C(=O)c1cccc(N3CCOc4cc(Br)ccc4C3)n1)CC2` [Example 281], the EC50 was under 400 nM.
Take `COc1ccc(-c2cccc(C(=O)N3CCc4cc(C(=O)NC5CC5)sc4-c4ccccc43)c2)cn1` [Example 6]: the EC50 was over 800 nM.
For `CC1CN(c2cccc(C(=O)N3CCc4cc(C(=O)NC5CC5)sc4-c4ccccc43)n2)CC(C)O1` (centres unmarked) [Example 24], the half-maximal effective concentration (EC50) was in the range of 400 to 800 nM.
On to `NNC(=O)c1ccc2c(c1)CCN(C(=O)c1cccc(N3CCOc4ccccc4C3)n1)c1ccccc1-2` [Example 398], for which the EC50 was over 800 nM.
As for `O=C(NC1CC1)c1cc2c(s1)-c1ccccc1N(C(=O)c1cccc(Nc3cccc4c3C(=O)NC4)n1)CC2` [Example 411], the 50% effective concentration (EC50) is over 800 nM.
With `Cc1cccc(F)c1NC(=O)c1cc2c(s1)-c1ccccc1N(C(=O)c1cccc(NCCOC(C)C)n1)CC2` [Example 331], the EC50 is under 400 nM.
In the case of `Cc1cccc2c1CN(c1cccc(C(=O)N3CCc4cc(C(=O)Nc5c(C)cccc5F)sc4-c4ccccc43)n1)CCO2` [Example 405], the EC50 is under 400 nM.
For the molecule `O=C(Nc1cc2c(s1)-c1ccccc1N(C(=O)c1cccc(N3CCOc4ccccc4C3)n1)CC2)NC1CC1` [Example 312], the 50% effective concentration (EC50) is over 800 nM.
The figure for `O=C(NC1CC1)c1cc2c(s1)-c1ccccc1N(C(=O)c1cccc(N3C4CCC3COC4)n1)CC2` [Example 29] is 400 to 800 nM; for `Cc1cccc(F)c1NC(=O)c1cc2c(s1)-c1ccccc1N(C(=O)c1cccc(N3CCCC(C)(O)CC3)n1)CC2` (centres unmarked) [Example 444] it is under 400 nM.
